This data set in a line: In vitro stability of MRS2365 in human whole blood. To be noted: EDTA-treated human whole blood, read-out: estimated half-life. Type of data set: in vitro ADME. The method, then: Whole blood was obtained from male CD-1 mice and human volunteers at Seventh Wave Laboratories (Maryland Heights, MO). Plasma and blood samples were prepared using either EDTA (1 mM) or lithium heparin as anticoagulants.
Blood Stability Determination: MRS2365, enalapril and procaine were solubilized in phosphate-buffered saline, pH 7.4. […] Stability incubations were initiated with the addition of MRS2365 (1 μM final concentration) (FIGS. 5 and 6). Blood sample aliquots were obtained at 0, 1, 2.5, 7.5, 10 and 30 minutes and placed in microtainer tubes. For metabolite scouting analyses, MRS2365 was incubated in heparinized human whole blood at a concentration of 100 μM for 10 or 30 minutes (FIG. 10). In all studies, plasma was immediately prepared by centrifugation at 4° C., placed in microtainer tubes, frozen on dry ice and stored at −80° C. until analysis.
The following table outlines the LC and MS/MS conditions employed (Table 11).
The calibration range for MRS2365 plasma and blood concentration standard curves was 5-5000 ng/mL. Quality control samples were utilized at concentrations of 32, 160, 800 and 4000 ng/mL.

A word on the half-life: it is the time needed for the level to fall by half in the phase considered.

Each structure is given as a SMILES string. A value given as a limit tells only on which side of the number the result lay.

In the case of `CSc1nc(N)c2ncn([C@H]3[C@H](O)[C@H](O)[C@]4(COP(=O)(O)OP(=O)(O)O)C[C@H]34)c2n1` [MRS2365], the half-life at 1 μM is > 240 min.
